Source: paper PMC12124671, “Drug repurposing reveals posaconazole as a CYP11A1 inhibitor enhancing anti-tumor immunity” (iScience, 2025)

Columns and labels:
[1] = target: T1, CYP11A1 (Mus musculus, UniProt Q9QZ82); assay: pregnenolone ELISA in murine Th2 cells (endogenous Cyp11a1), reference inhibitor, […] h dose response; format: cell-based
T1 sequence (Q9QZ82 37-526): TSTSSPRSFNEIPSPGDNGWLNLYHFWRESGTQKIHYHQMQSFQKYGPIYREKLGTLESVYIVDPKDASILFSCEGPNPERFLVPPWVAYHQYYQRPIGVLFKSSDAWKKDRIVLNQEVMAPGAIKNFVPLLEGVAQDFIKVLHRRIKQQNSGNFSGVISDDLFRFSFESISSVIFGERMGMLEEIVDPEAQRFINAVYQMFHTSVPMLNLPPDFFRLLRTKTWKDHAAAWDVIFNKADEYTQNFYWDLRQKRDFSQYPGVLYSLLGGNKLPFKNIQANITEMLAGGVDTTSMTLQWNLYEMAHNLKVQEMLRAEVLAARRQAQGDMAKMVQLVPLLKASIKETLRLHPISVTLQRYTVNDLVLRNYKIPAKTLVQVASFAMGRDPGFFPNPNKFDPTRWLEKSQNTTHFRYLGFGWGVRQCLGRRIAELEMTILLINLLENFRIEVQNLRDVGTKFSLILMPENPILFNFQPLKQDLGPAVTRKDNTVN

[2] = target: T1, CYP11A1; assay: pregnenolone ELISA in murine Th2 cells (endogenous Cyp11a1), dose response; format: cell-based

Row | SMILES | IC50 [1] [nM] | IC50 [2] [nM]
1 | CCC1(c2ccc(N)cc2)CCC(=O)NC1=O (centres unmarked) [aminoglutethimide] | 1080 | –
2 | CC[C@@H]([C@H](C)O)n1ncn(-c2ccc(N3CCN(c4ccc(OC[C@@H]5CO[C@@](Cn6cncn6)(c6ccc(F)cc6F)C5)cc4)CC3)cc2)c1=O [posaconazole] | – | 218
